Source: ChEMBL document CHEMBL1201862, “PubChem BioAssay data set” (2004)
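How tested: cells in 96-well plates exposed to compound for 48 hours at five concentrations. GI50 marks 50% less growth.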 Active and inactive are the calls of the source. Rule as the data show it: active = GI50 up to about 1.1 µM and inactive = higher.

How the values were obtained:
Assay in all cases: NCI-60 cell line screen, 48 h
XF498 = tested on: XF498
M19-MEL = tested on: M19-MEL
SNB-78 = tested on: SNB-78
LXFL 529 = tested on: LXFL 529
DMS-273 = tested on: DMS-273
DLD-1 = tested on: DLD-1
DMS-114 = tested on: DMS-114
HOP-18 = tested on: HOP-18
RXF 631 = tested on: RXF 631

| SMILES | GI50 (XF498) | GI50 (M19-MEL) | GI50 (SNB-78) | GI50 (LXFL 529) | GI50 (DMS-273) | GI50 (DLD-1) | GI50 (DMS-114) | GI50 (HOP-18) | GI50 (RXF 631) |
| --- | --- | --- | --- | --- | --- | --- | --- | --- | --- |
| CC1OC(OC2C[C@](O)(C(=O)CF)Cc3c(O)c4c(c(O)c32)C(=O)c2ccccc2C4=O)CC(N)C1O (some centres not stated) | < 0.0164 µM (active) | 0.0178 µM (active) | 0.241 µM (active) | 0.0596 µM (active) | < 0.01 µM (active) | 0.0484 µM (active) | < 0.0109 µM (active) | – | – |
| COC(=O)C1C(/C=C/c2ccoc2)ON2CCC[C@@H]12 (some centres not stated) | – | > 100 µM (inactive) | > 100 µM (inactive) | > 100 µM (inactive) | 36.2 µM (inactive) | > 100 µM (inactive) | > 100 µM (inactive) | 70.3 µM (inactive) | – |
| CCOP(=O)(OCC)C(C(=O)OC)C(=O)C(=O)Nc1cccc([N+](=O)[O-])c1 (configuration not stated) | > 100 µM (inactive) | > 100 µM (inactive) | > 100 µM (inactive) | > 100 µM (inactive) | > 100 µM (inactive) | > 100 µM (inactive) | > 100 µM (inactive) | > 100 µM (inactive) | > 100 µM (inactive) |
| COc1ccc(-c2c(N)[n+]([O-])c3ccccc3[n+]2[O-])cc1OC | – | > 100 µM (inactive) | > 100 µM (inactive) | > 100 µM (inactive) | > 100 µM (inactive) | > 100 µM (inactive) | > 100 µM (inactive) | > 100 µM (inactive) | 86.3 µM (inactive) |
| Cn1c2ccccc2c2cc(-c3ccccc3)c3c(c21)C(=O)c1ccccc1C3=O | 14.6 µM (inactive) | 2.25 µM (inactive) | 15.1 µM (inactive) | 14.3 µM (inactive) | 17 µM (inactive) | 13.3 µM (inactive) | 12.5 µM (inactive) | – | 34 µM (inactive) |
| COc1ccc2c(c1OC)C(=O)c1cnccc1C2=O | > 100 µM (inactive) | > 100 µM (inactive) | > 100 µM (inactive) | > 100 µM (inactive) | > 100 µM (inactive) | > 100 µM (inactive) | > 100 µM (inactive) | > 100 µM (inactive) | > 100 µM (inactive) |
| Clc1ccc2ns[s+]c2c1 | > 100 µM (inactive) | 1.97 µM (inactive) | > 100 µM (inactive) | 0.166 µM (active) | 0.815 µM (active) | 0.625 µM (active) | 2.61 µM (inactive) | 11.7 µM (inactive) | – |
| C=CC/C=C/Cc1csc(C(C)(C)C(O)C/C=C/C(=C)CCNC(=O)OC)n1 (configuration not stated) | > 50 µM (inactive) | 25.5 µM (inactive) | – | 21.2 µM (inactive) | 3.26 µM (inactive) | 83.4 µM (inactive) | < 0.0132 µM (active) | – | – |
| Cn1c(=O)c2/c(n(C)c1=O)=N\C=c1\c(=O)n(C)c(=O)n(C)\c1=N\C=2 | – | > 100 µM (inactive) | 76.2 µM (inactive) | > 100 µM (inactive) | – | > 100 µM (inactive) | > 100 µM (inactive) | > 100 µM (inactive) | > 100 µM (inactive) |
| NC(=O)NO [HYDROXYUREA] | 820 µM (inactive) | 1420 µM (inactive) | 2160 µM (inactive) | 713 µM (inactive) | 137 µM (inactive) | 1450 µM (inactive) | – | 933 µM (inactive) | – |
| Cc1cccc(C)c1NC(=O)/C(Cl)=C(/Cl)C(=O)O | 15 µM (inactive) | 19.9 µM (inactive) | 28.2 µM (inactive) | 8.11 µM (inactive) | 18.6 µM (inactive) | 7.28 µM (inactive) | 21.3 µM (inactive) | 20.3 µM (inactive) | – |
| Nc1ccn(CCNCCn2cnc3nc(N)[nH]c(=O)c32)c(=O)n1 | > 100 µM (inactive) | – | > 100 µM (inactive) | > 100 µM (inactive) | – | > 100 µM (inactive) | > 100 µM (inactive) | > 100 µM (inactive) | > 100 µM (inactive) |
| C[n+]1c2n(c3nc(N)[nH]c(=O)c31)C1OC(C2)C(O)C1O (configuration not stated) | > 100 µM (inactive) | > 100 µM (inactive) | > 100 µM (inactive) | > 100 µM (inactive) | > 100 µM (inactive) | > 100 µM (inactive) | > 100 µM (inactive) | > 100 µM (inactive) | > 100 µM (inactive) |
| CCCCN(CCCC)CC(C(=O)Nc1ccc([N+](=O)[O-])cc1[N+](=O)[O-])/C(C)=N\NC(=O)c1ccncc1 (configuration not stated) | > 100 µM (inactive) | > 100 µM (inactive) | > 100 µM (inactive) | > 100 µM (inactive) | > 100 µM (inactive) | > 100 µM (inactive) | > 100 µM (inactive) | – | > 100 µM (inactive) |
| COc1ccc(CNc2nc3c(NC(C)=O)cc(C(F)(F)F)cc3nc2-c2ccccc2)cc1OC | 78 µM (inactive) | > 100 µM (inactive) | 10.7 µM (inactive) | 16.4 µM (inactive) | 21.9 µM (inactive) | > 100 µM (inactive) | 15.2 µM (inactive) | – | – |
| Cc1cccc(C(C)(C)C)c1NC(=O)C(C#N)C1=C(Cl)C(=O)c2ccccc2C1=O (configuration not stated) | 16 µM (inactive) | – | 14.4 µM (inactive) | 15.5 µM (inactive) | 17.8 µM (inactive) | 14.4 µM (inactive) | 16.6 µM (inactive) | 12 µM (inactive) | – |
| CC(C)(C)C(C#N)(C#N)c1ccc(C(C#N)(C#N)C(C)(C)C)nn1 | 38.6 µM (inactive) | > 100 µM (inactive) | 74.8 µM (inactive) | > 100 µM (inactive) | > 100 µM (inactive) | > 100 µM (inactive) | > 100 µM (inactive) | – | > 100 µM (inactive) |
| CN(C)c1ccc(C(=C(c2ccc(N(C)C)cc2)c2ccc(N(C)C)cc2)c2ccc(N(C)C)cc2)cc1 | – | 26.5 µM (inactive) | 82.2 µM (inactive) | 12.3 µM (inactive) | 15.8 µM (inactive) | 16.1 µM (inactive) | 15.4 µM (inactive) | 7.01 µM (inactive) | 13.6 µM (inactive) |
| Cc1ccc([N+](=O)[O-])cc1NC(=O)C(=O)Cc1nc2ccc(C(=O)c3ccccc3)cc2nc1O | > 100 µM (inactive) | > 100 µM (inactive) | – | > 100 µM (inactive) | > 100 µM (inactive) | > 100 µM (inactive) | 90.6 µM (inactive) | > 100 µM (inactive) | > 100 µM (inactive) |
| COc1ccccc1NC(=O)CC(=O)N/N=C/c1ccc(N(CCC#N)S(=O)(=O)c2ccccc2)cc1 | > 100 µM (inactive) | > 100 µM (inactive) | > 100 µM (inactive) | > 100 µM (inactive) | – | > 100 µM (inactive) | > 100 µM (inactive) | > 100 µM (inactive) | – |
| O=C(CCc1nnc(S)[nH]1)Nc1cc(Cl)c(Cl)cc1Cl | > 100 µM (inactive) | > 100 µM (inactive) | > 100 µM (inactive) | > 100 µM (inactive) | > 100 µM (inactive) | – | > 100 µM (inactive) | – | > 100 µM (inactive) |
| Cc1c(Cl)ccc2c1NC(=O)C2(O)CC(=O)c1ccc2ccccc2c1 (configuration not stated) | > 100 µM (inactive) | – | – | – | – | 79.8 µM (inactive) | 21.1 µM (inactive) | > 100 µM (inactive) | 57.1 µM (inactive) |
| CN(C)c1ccc(C(=C2C=CC(=[N+](C)C)C=C2)c2ccc(N(C)C)cc2)cc1 [GENTIAN VIOLET] | 0.0363 µM (active) | 0.173 µM (active) | 0.637 µM (active) | 0.0579 µM (active) | 0.22 µM (active) | 0.0673 µM (active) | 0.13 µM (active) | – | 0.185 µM (active) |
| Oc1ccc2c(O)cc(-c3ccccc3)nc2c1 | 25.1 µM (inactive) | 19.5 µM (inactive) | 48 µM (inactive) | 26.5 µM (inactive) | 28.1 µM (inactive) | 18.3 µM (inactive) | 18.7 µM (inactive) | 26.2 µM (inactive) | 30.5 µM (inactive) |
| CN(C(=O)c1ccc(Cl)cc1)C(=S)N1CCN(c2ccccn2)CC1 | – | > 100 µM (inactive) | > 100 µM (inactive) | > 100 µM (inactive) | > 100 µM (inactive) | > 100 µM (inactive) | 69.8 µM (inactive) | > 100 µM (inactive) | – |
| C=C1C(=O)OC2CC3(C)C=CC(=O)C(=C)C3CC12 (configuration not stated) | 1.72 µM (inactive) | 1.69 µM (inactive) | 2.43 µM (inactive) | 0.664 µM (active) | 1.22 µM (inactive) | 0.329 µM (active) | 3.61 µM (inactive) | 3.06 µM (inactive) | – |
| C=CC(=O)N1C/C(=C\c2ccc(Cl)c(Cl)c2)C(=O)/C(=C/c2ccc(Cl)c(Cl)c2)C1 | – | 0.184 µM (active) | 0.261 µM (active) | 0.127 µM (active) | 0.155 µM (active) | 0.0374 µM (active) | 0.12 µM (active) | 0.362 µM (active) | 0.449 µM (active) |
| CC1(C)OCN(c2ccc(S(N)(=O)=O)cc2)Cn2c1nc1ccccc12 | > 100 µM (inactive) | > 100 µM (inactive) | > 100 µM (inactive) | > 100 µM (inactive) | > 100 µM (inactive) | > 100 µM (inactive) | > 100 µM (inactive) | > 100 µM (inactive) | – |
| Cc1cc2c(c3oc(C4(C)OC4C4OC4C)cc(=O)c13)C(=O)c1c(O)c(C3CC(C)(N(C)C)C(O)C(C)O3)cc(C3CC(N(C)C)C(O)C(C)O3)c1C2=O (configuration not stated) | – | – | 0.0025 µM (active) | 0.000227 µM (active) | 0.0025 µM (active) | 0.0025 µM (active) | – | 0.00069 µM (active) | 0.000161 µM (active) |
| Cc1ccc(C(c2c(O)c3ccccc3n(-c3ccccc3)c2=O)c2c(O)c3ccccc3n(-c3ccccc3)c2=O)cc1 | > 100 µM (inactive) | > 100 µM (inactive) | > 100 µM (inactive) | > 100 µM (inactive) | > 100 µM (inactive) | > 100 µM (inactive) | > 100 µM (inactive) | > 100 µM (inactive) | – |
